These results are taken from patent US8410112B2, “Compounds useful as inhibitors of ATR kinase” (Vertex Pharmaceuticals Incorporated, priority 2008, dated 2013).

The structures appear in SMILES notation. Bounds are passed on as bounds.

For the test, the target named is T1, full-length ATR (Homo sapiens, UniProt Q13535).
T1 construct: in the presence of 5 nM full-length ATR
T1 sequence (Q13535 whole entry): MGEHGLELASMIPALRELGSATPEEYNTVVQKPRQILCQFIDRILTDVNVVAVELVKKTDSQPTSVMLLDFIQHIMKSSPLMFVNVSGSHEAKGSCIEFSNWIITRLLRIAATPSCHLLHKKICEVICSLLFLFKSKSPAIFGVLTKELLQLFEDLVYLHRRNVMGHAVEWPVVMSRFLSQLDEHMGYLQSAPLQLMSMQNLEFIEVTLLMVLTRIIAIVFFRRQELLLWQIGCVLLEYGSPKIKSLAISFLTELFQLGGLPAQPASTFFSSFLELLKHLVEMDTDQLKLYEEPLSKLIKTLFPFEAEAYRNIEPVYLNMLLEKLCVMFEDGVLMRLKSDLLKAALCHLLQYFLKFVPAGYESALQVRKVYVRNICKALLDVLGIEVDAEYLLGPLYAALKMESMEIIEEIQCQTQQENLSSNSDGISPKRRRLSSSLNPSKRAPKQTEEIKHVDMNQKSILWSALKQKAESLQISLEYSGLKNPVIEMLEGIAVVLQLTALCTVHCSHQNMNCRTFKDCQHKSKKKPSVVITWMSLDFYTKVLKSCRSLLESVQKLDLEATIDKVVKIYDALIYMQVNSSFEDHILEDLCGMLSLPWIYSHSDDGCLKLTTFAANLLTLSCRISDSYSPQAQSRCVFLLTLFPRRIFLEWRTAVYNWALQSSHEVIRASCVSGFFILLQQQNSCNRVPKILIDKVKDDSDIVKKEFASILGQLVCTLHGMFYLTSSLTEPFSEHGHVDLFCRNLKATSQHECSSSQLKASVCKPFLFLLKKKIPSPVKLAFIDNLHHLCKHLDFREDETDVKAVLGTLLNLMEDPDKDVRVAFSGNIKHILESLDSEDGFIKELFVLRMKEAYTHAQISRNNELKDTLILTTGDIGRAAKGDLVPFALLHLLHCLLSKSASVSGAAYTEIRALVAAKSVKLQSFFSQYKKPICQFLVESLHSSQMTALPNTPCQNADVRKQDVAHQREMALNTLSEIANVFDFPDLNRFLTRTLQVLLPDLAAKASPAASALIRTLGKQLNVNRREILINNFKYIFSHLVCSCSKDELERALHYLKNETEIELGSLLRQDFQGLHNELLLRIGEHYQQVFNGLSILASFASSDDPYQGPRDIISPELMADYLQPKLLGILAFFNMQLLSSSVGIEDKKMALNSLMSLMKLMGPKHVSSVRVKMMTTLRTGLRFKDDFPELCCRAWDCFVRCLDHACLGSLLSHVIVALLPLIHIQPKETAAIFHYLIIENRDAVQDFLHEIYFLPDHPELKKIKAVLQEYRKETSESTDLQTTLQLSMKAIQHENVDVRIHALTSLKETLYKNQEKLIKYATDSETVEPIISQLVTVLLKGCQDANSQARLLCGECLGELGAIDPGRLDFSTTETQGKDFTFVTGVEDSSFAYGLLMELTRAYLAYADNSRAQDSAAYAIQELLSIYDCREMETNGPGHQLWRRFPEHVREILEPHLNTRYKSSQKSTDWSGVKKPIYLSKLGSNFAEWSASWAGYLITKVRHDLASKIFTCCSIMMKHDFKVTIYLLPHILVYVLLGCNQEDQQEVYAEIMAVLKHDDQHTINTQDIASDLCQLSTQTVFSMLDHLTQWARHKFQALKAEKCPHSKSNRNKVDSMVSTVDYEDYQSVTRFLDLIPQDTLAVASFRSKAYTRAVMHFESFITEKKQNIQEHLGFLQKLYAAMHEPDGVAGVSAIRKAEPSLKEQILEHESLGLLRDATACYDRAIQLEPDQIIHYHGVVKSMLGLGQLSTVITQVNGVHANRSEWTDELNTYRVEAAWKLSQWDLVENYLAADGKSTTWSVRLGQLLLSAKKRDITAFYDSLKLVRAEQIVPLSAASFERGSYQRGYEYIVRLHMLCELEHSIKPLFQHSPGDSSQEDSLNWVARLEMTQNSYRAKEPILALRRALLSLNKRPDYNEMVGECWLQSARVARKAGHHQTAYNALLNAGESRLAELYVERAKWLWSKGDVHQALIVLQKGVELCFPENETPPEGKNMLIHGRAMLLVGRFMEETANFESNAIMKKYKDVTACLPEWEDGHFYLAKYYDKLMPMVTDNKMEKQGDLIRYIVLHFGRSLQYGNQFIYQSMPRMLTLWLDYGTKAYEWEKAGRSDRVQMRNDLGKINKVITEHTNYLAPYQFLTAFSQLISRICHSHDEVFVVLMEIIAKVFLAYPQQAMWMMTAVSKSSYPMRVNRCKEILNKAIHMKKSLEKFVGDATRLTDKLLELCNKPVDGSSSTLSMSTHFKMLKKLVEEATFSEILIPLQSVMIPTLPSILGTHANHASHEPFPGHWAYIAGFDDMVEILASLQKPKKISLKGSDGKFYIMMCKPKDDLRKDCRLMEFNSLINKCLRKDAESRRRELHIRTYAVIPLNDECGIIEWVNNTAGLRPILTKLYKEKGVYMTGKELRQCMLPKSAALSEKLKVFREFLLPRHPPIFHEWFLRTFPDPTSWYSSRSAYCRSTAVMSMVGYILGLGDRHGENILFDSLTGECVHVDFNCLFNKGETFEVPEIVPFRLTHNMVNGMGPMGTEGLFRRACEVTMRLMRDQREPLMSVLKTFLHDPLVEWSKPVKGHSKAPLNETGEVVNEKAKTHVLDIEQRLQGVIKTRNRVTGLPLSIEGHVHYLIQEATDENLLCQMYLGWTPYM
As to the kind of experiment: ATR Inhibition Assay (radioactive-phosphate incorporation). The following applies: Ki(app); 5 nM full-length ATR, 10 μM ATP, 800 μM target peptide, 25° C. The test is classed as biochemical. The protocol:
Test compounds were screened for their ability to inhibit ATR kinase using a radioactive-phosphate incorporation assay. Assays were carried out in a mixture of 50 mM
Tris/HCl (pH 7.5), 10 mM MgCl2 and 1 mM DTT. Final substrate concentrations were 10 μM [γ-33P]ATP (3 mCi 33 P ATP/mmol ATP, Perkin Elmer) and 800 μM target peptide ([…]). Assays were carried out at 25° C. in the presence of 5 nM full-length ATR. An assay stock buffer solution was prepared containing all of the reagents listed above, with the exception of ATP and the test compound of interest. […] The plate was pre-incubated for 10 minutes at 25° C. and the reaction initiated by addition of 15 μL [γ-33P]ATP (final concentration 10 μM).
The reaction was stopped after […] by the addition of 30 μL 0.1M phosphoric acid containing 2 mM ATP. A multiscreen phosphocellulose filter 96-well plate (Millipore, Cat no. MAPHN0B50) was pretreated with 100 μL 0.2M phosphoric acid prior to the addition of 45 μL of the stopped assay mixture. The plate was washed with 5×200 μL 0.2M phosphoric acid.
After removing mean background values for all of the data points, Ki(app) data were calculated from non-linear regression analysis of the initial rate data using the Prism software package (GraphPad Prism version 3.0cx for Macintosh, GraphPad Software, San Diego Calif., USA).
For the compound `CCC(=O)NC1CCN(c2cnc(N)c(-c3nnc(-c4ccc(CNC)cc4)o3)n2)CC1` [Compound I-366, N-(1-(5-Amino-6-(5-(4-((methylamino)methyl)phenyl)-1,3,4-oxadiazol-2-yl)pyrazin-2-yl)piperidin-4-yl)propionamide], the Ki is 100 to 1000 nM.
The same measure for `Nc1ncc(N2CCN(C(=O)c3c(F)cccc3F)CC2)nc1-c1nc2ccccc2[nH]1` [Compound I-177, (4-(5-amino-6-(1H-benzo[d]imidazol-2-yl)pyrazin-2-yl)piperazin-1-yl)(2,6-difluorophenyl)methanone]: 100 to 1000 nM.
In the case of `CC#CCOC(=O)N1CCN(c2cnc(N)c(-c3nc4ccccc4[nH]3)n2)CC1` [Compound I-272, but-2-ynyl 4-(5-amino-6-(1H-benzo[d]imidazol-2-yl)pyrazin-2-yl)piperazine-1-carboxylate], the Ki fell in the range of 1000 to 10000 nM.
Consider `Nc1ncc(N2CCN(C(=O)COc3ccccc3)CC2)nc1-c1nnc(-c2ccccc2)o1` [Compound I-195, 1-(4-(5-amino-6-(5-phenyl-1,3,4-oxadiazol-2-yl)pyrazin-2-yl)piperazin-1-yl)-2-phenoxyethanone], for which the Ki lay within 1000 to 10000 nM.
On to `CC(C)(C)C(=O)N[C@H]1CCN(c2cnc(N)c(-c3nc4ccccc4[nH]3)n2)C1` [Compound I-111, (S)-N-(1-(5-amino-6-(1H-benzo[d]imidazol-2-yl)pyrazin-2-yl)pyrrolidin-3-yl)-2,2-dimethylpropanamide], for which the Ki lay within 100 to 1000 nM.
Turning to `Nc1ncc(N2CCN(S(=O)(=O)c3c(F)cccc3F)CC2)nc1-c1nnc(-c2ccccc2)o1` [Compound I-202, 5-(4-(2,6-difluorophenylsulfonyl)piperazin-1-yl)-3-(5-phenyl-1,3,4-oxadiazol-2-yl)pyrazin-2-amine], the Ki was in the range of 100 to 1000 nM.
The figure for `CN(C)C(=O)N1CC=C(c2cnc(N)c(-c3nc4ccccc4[nH]3)n2)CC1` [Compound I-234, 4-(5-amino-6-(1H-benzo[d]imidazol-2-yl)pyrazin-2-yl)-N,N-dimethyl-5,6-dihydropyridine-1(2H)-carboxamide] is 100 to 1000 nM.
Take `Nc1ncc(N2CC[C@H](NC(=O)c3ccccc3)C2)nc1-c1nc2ccccc2[nH]1` [Compound I-108, (S)-N-(1-(5-amino-6-(1H-benzo[d]imidazol-2-yl)pyrazin-2-yl)pyrrolidin-3-yl)benzamide]: the Ki lay in the range of 100 to 1000 nM.
The figure for `CC(C)(C)C(=O)N1CCN(c2cnc(N)c(C(=O)Nc3ccccn3)n2)CC1` [Compound I-209, 3-amino-6-(4-(2,2-dimethylpropanoyl)piperazin-1-yl)-N-(pyridin-2-yl)pyrazine-2-carboxamide] is 1000 to 10000 nM; for `COC(=O)N1CCN(c2cnc(N)c(-c3nc4ccccc4[nH]3)n2)CC1` [Compound I-268, methyl 4-(5-amino-6-(1H-benzo[d]imidazol-2-yl)pyrazin-2-yl)piperazine-1-carboxylate] it is 1000 to 10000 nM.
In the case of `Nc1ncc(C2=CCN(C(=O)c3cccnc3)CC2)nc1-c1nnc(-c2ccccc2)o1` [Compound I-129, (4-(5-amino-6-(5-phenyl-1,3,4-oxadiazol-2-yl)pyrazin-2-yl)-5,6-dihydropyridin-1(2H)-yl)(pyridin-3-yl)methanone], the Ki is less than 100 nM.
As to `CCS(=O)(=O)N1CC=C(c2cnc(N)c(-c3nnc(-c4ccc(CNC)cc4)o3)n2)CC1` [Compound I-339, 5-(1-Ethylsulfonyl-3,6-dihydro-2H-pyridin-4-yl)-3-[5-[4-(methylaminomethyl)phenyl]-1,3,4-oxadiazol-2-yl]pyrazin-2-amine], the Ki was in the range of 100 to 1000 nM.
Consider `CC(=O)NC1CN(c2cnc(N)c(-c3nnc(-c4ccccc4)o3)n2)C1` [Compound I-282, N-(1-(5-amino-6-(5-phenyl-1,3,4-oxadiazol-2-yl)pyrazin-2-yl)azetidin-3-yl)ethanamide], for which the Ki fell in the range of 1000 to 10000 nM.
Consider `Nc1ncc(N2CC=C(C(=O)O)CC2)nc1-c1nnc(-c2ccccc2)o1` [Compound I-288, 1-[5-amino-6-(5-phenyl-1,3,4-oxadiazol-2-yl)pyrazin-2-yl]-3,6-dihydro-2H-pyridine-4-carboxylic acid], for which the Ki is 100 to 1000 nM.
As to `Nc1ncc(N2CCN(C(=O)c3ccccc3)CC2)nc1-c1nc2ccccc2[nH]1` [Compound I-208, (4-(5-amino-6-(1H-benzo[d]imidazol-2-yl)pyrazin-2-yl)piperazin-1-yl)(phenyl)methanone], the Ki lay within 100 to 1000 nM.
`CCOC(=O)N1CCN(c2cnc(N)c(-c3nc4ccc(C)cc4[nH]3)n2)CC1` [Compound I-32, ethyl 4-(5-amino-6-(6-methyl-1H-benzo[d]imidazol-2-yl)pyrazin-2-yl)piperazine-1-carboxylate]: the Ki fell in the range of 1000 to 10000 nM.
Turning to `Nc1ncc(N2CCN(S(=O)(=O)C3CC3)CC2)nc1C(=O)Nc1ccccn1` [Compound I-118, 3-amino-6-(4-(cyclopropylsulfonyl)piperazin-1-yl)-N-(pyridin-2-yl)pyrazine-2-carboxamide], the Ki was in the range of 100 to 1000 nM.
The figure for `Cc1ccc2nc(-c3nc(N4CCN(C(=O)c5ccco5)CC4)cnc3N)[nH]c2c1` [Compound I-53, (4-(5-amino-6-(6-methyl-1H-benzo[d]imidazol-2-yl)pyrazin-2-yl)piperazin-1-yl)(furan-2-yl)methanone] is 100 to 1000 nM.
For `Nc1ncc(C2=CCN(S(=O)(=O)c3ccsc3)CC2)nc1-c1nnc(-c2ccccc2)o1` [Compound I-121, 3-(5-phenyl-1,3,4-oxadiazol-2-yl)-5-(1-(thiophen-3-ylsulfonyl)-1,2,3,6-tetrahydropyridin-4-yl)pyrazin-2-amine], the Ki is less than 100 nM.
The figure for `CCS(=O)(=O)NC1CN(c2cnc(N)c(-c3nnc(-c4ccccc4)o3)n2)C1` [Compound I-302, N-[1-[5-amino-6-(5-phenyl-1,3,4-oxadiazol-2-yl)pyrazin-2-yl]azetidin-3-yl]ethanesulfonamide] is 100 to 1000 nM.
The same measure for `Nc1ncc(-n2ccccc2=O)nc1-c1nc2ccccc2[nH]1` [Compound I-310, 1-(5-amino-6-(1H-benzo[d]imidazol-2-yl)pyrazin-2-yl)pyridin-2(1H)-one]: less than 100 nM; for `COCCOCC(=O)N[C@H]1CCN(c2cnc(N)c(-c3nc4ccccc4[nH]3)n2)C1` [Compound I-181, (S)-N-(1-(5-amino-6-(1H-benzo[d]imidazol-2-yl)pyrazin-2-yl)pyrrolidin-3-yl)-2-(2-methoxyethoxy)ethanamide]: 1000 to 10000 nM.
The figure for `Nc1ncc(N2CCN(C(=O)C3CCCCC3)CC2)nc1-c1nc2ccccc2[nH]1` [Compound I-112, (4-(5-amino-6-(1H-benzo[d]imidazol-2-yl)pyrazin-2-yl)piperazin-1-yl)(cyclohexyl)methanone] is 100 to 1000 nM; for `CCS(=O)(=O)N1CCN(c2cnc(N)c(-c3cc4ccccc4[nH]3)n2)CC1` [Compound I-61, 5-(4-(ethylsulfonyl)piperazin-1-yl)-3-(1H-indol-2-yl)pyrazin-2-amine] it is 1000 to 10000 nM.
On to `Nc1ncc(N2CCNCC2)nc1-c1nnc(-c2ccccc2)o1` [Compound I-37, 3-(5-phenyl-1,3,4-oxadiazol-2-yl)-5-(piperazin-1-yl)pyrazin-2-amine], for which the Ki is 1000 to 10000 nM.
The same measure for `CCOC(=O)N1CCN(c2cnc(N)c(C(=O)Nc3ccccn3)n2)CC1` [Compound I-113, ethyl 4-(5-amino-6-(pyridin-2-ylcarbamoyl)pyrazin-2-yl)piperazine-1-carboxylate]: 1000 to 10000 nM; for `COCC(=O)N1CCN(c2cnc(N)c(-c3nc4ccccc4[nH]3)n2)CC1` [Compound I-265, 1-(4-(5-amino-6-(1H-benzo[d]imidazol-2-yl)pyrazin-2-yl)piperazin-1-yl)-2-methoxyethanone]: 1000 to 10000 nM.
The figure for `Nc1ncc(C2=CCN(S(=O)(=O)c3ccccc3)CC2)nc1-c1nc2ccccc2[nH]1` [Compound I-210, 3-(1H-benzo[d]imidazol-2-yl)-5-(1-(phenylsulfonyl)-1,2,3,6-tetrahydropyridin-4-yl)pyrazin-2-amine] is less than 100 nM; for `Nc1ncc(N2CCC3(CCNC3)C2)nc1-c1nnc(-c2ccccc2)o1` (centres unmarked) [Compound I-340, 3-(5-Phenyl-1,3,4-oxadiazol-2-yl)-5-(2,7-diazaspiro[4.4]nonan-2-yl)pyrazin-2-amine] it is 1000 to 10000 nM; for `CN(C)S(=O)(=O)N1CC=C(c2cnc(N)c(-c3nc4ccccc4[nH]3)n2)CC1` [Compound I-89, 4-(5-amino-6-(1H-benzo[d]imidazol-2-yl)pyrazin-2-yl)-N,N-dimethyl-5,6-dihydropyridine-1(2H)-sulfonamide] it is less than 100 nM.
The figure for `CC(C)(C)C(=O)N1CCN(c2cnc(N)c(-c3nnc(-c4ccccc4)o3)n2)CC1` [Compound I-198, 1-(4-(5-amino-6-(5-phenyl-1,3,4-oxadiazol-2-yl)pyrazin-2-yl)piperazin-1-yl)-2,2-dimethylpropan-1-one] is 100 to 1000 nM; for `CC#CCOC(=O)N1CCN(c2cnc(N)c(-c3nnc(-c4ccccc4)o3)n2)CC1` [Compound I-246, but-2-ynyl 4-(5-amino-6-(5-phenyl-1,3,4-oxadiazol-2-yl)pyrazin-2-yl)piperazine-1-carboxylate] it is 100 to 1000 nM.
